Experimental data as given in the supplement of paper PMC10627819.

Legend:
S. aureus DSM 20231 [1] = assay: fitness (endpoint OD595 vs no drug) (fraction); higher = more growth
Procedure, shortened: (§1)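 Background-subtracted growth curves were the basis for fitness, taken as the optical density at entry into stationary phase over the robust mean of no-drug control wells. A cap of 1 was applied. The curves came from OD595 readings every 30 min for 14 h at 37 °C, in 384-well plates seeded at OD595 0.01 with 30 µl, or 55 µl for S. pneumoniae.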

S. aureus Newman [2] = assay: as above
Procedure, shortened: as §1

S. pneumoniae D39V [3] = assay: as above
Procedure, shortened: as §1

B. subtilis 168 = assay: Bliss interaction score (quartile over a dose matrix) (fitness difference); higher = more antagonism (negative = synergy)
Procedure, shortened: (§2)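 Fitness was defined as normalised growth: OD595 at the start of stationary phase divided by the plate's robust no-drug mean and capped at 1. Single-drug fitness was inferred from combination measurements. The Bliss score is observed fitness minus the product of the single-drug values, summarised by quartiles across technical, biological and donor/recipient replicates.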

S. aureus DSM 20231 [4] = assay: as above
Procedure, shortened: as §2

S. aureus Newman [5] = assay: as above
Procedure, shortened: as §2

S. pneumoniae D39V [6] = assay: as above
Procedure, shortened: as §2

[7] = first compound 0.0156 µg/mL, partner 0.0625 µg/mL
[8] = first compound 0.0156 µg/mL, partner 0.125 µg/mL
[9] = first compound 0.0156 µg/mL, partner 0.25 µg/mL
[10] = first compound 0.0312 µg/mL, partner 0.0625 µg/mL
[11] = first compound 0.0312 µg/mL, partner 0.125 µg/mL
[12] = first compound 0.0312 µg/mL, partner 0.25 µg/mL
[13] = first compound 0.0625 µg/mL, partner 0.0625 µg/mL
[14] = first compound 0.0625 µg/mL, partner 0.125 µg/mL
[15] = first compound 0.0625 µg/mL, partner 0.25 µg/mL
[16] = first compound 1.25 µg/mL, partner 0.1875 µg/mL
[17] = first compound 1.25 µg/mL, partner 0.375 µg/mL
[18] = first compound 2.5 µg/mL, partner 0.1875 µg/mL
[19] = first compound 2.5 µg/mL, partner 0.375 µg/mL
[20] = first compound 5 µg/mL, partner 0.1875 µg/mL
[21] = first compound 5 µg/mL, partner 0.375 µg/mL
[22] = first compound 5 µg/mL, partner 0.75 µg/mL
[23] = first compound 1.5 µg/mL, partner 0.03125 µg/mL
[24] = first compound 1.5 µg/mL, partner 0.0625 µg/mL
[25] = first compound 1.5 µg/mL, partner 0.125 µg/mL
[26] = first compound 1.5 µg/mL, partner 0.25 µg/mL, one replicate
[27] = first compound 1.5 µg/mL, partner 0.5 µg/mL, one replicate
[28] = first compound 3 µg/mL, partner 0.03125 µg/mL
[29] = first compound 3 µg/mL, partner 0.0625 µg/mL
[30] = first compound 3 µg/mL, partner 0.125 µg/mL
[31] = first compound 3 µg/mL, partner 0.25 µg/mL, one replicate
[32] = first compound 3 µg/mL, partner 0.5 µg/mL, one replicate
[33] = first compound 6 µg/mL, partner 0.03125 µg/mL
[34] = first compound 6 µg/mL, partner 0.0625 µg/mL
[35] = first compound 6 µg/mL, partner 0.125 µg/mL
[36] = first compound 6 µg/mL, partner 0.25 µg/mL, one replicate
[37] = first compound 6 µg/mL, partner 0.5 µg/mL, one replicate
[38] = first compound 1.25 µg/mL, partner 0.0625 µg/mL
[39] = first compound 1.25 µg/mL, partner 0.125 µg/mL
[40] = first compound 2.5 µg/mL, partner 0.0625 µg/mL
[41] = first compound 2.5 µg/mL, partner 0.125 µg/mL
[42] = first compound 5 µg/mL, partner 0.0625 µg/mL
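Throughout, for Bliss interaction score (quartile over a dose matrix): first quartile when negative (synergy) and third quartile when positive (antagonism).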

## Cc1onc(-c2ccccc2)c1C(=O)N[C@@H]1C(=O)N2[C@@H]1SC(C)(C)[C@@H]2C(=O)O [Oxacillin] + Cn1nnc(-c2ccc(-c3ccc(N4C[C@H](CO)OC4=O)cc3F)cn2)n1 [Tedizolid]
S. aureus DSM 20231 [1]; [7]
  fitness: 0.791
S. aureus DSM 20231 [1]; [8]
  fitness: 0.731
S. aureus DSM 20231 [1]; [9]
  fitness: 0.312
S. aureus DSM 20231 [1]; [10]
  fitness: 0.687
S. aureus DSM 20231 [1]; [11]
  fitness: 0.593
S. aureus DSM 20231 [1]; [12]
  fitness: 0.279
S. aureus DSM 20231 [1]; [13]
  fitness: 0.51
S. aureus DSM 20231 [1]; [14]
  fitness: 0.503
S. aureus DSM 20231 [1]; [15]
  fitness: 0.261
S. aureus Newman [2]; [7]
  fitness: 0.746
S. aureus Newman [2]; [8]
  fitness: 0.673
S. aureus Newman [2]; [9]
  fitness: 0.425
S. aureus Newman [2]; [10]
  fitness: 0.693
S. aureus Newman [2]; [11]
  fitness: 0.579
S. aureus Newman [2]; [12]
  fitness: 0.24
S. aureus Newman [2]; [13]
  fitness: 0.562
S. aureus Newman [2]; [14]
  fitness: 0.481
S. aureus Newman [2]; [15]
  fitness: 0.159
S. pneumoniae D39V [3]; first compound 0.01 µg/mL, partner 0.03125 µg/mL
  fitness: 0.974
S. pneumoniae D39V [3]; first compound 0.01 µg/mL, partner 0.0625 µg/mL
  fitness: 0.931
S. pneumoniae D39V [3]; first compound 0.01 µg/mL, partner 0.125 µg/mL
  fitness: 0.851
S. pneumoniae D39V [3]; first compound 0.01 µg/mL, partner 0.25 µg/mL
  fitness: 0.683
S. pneumoniae D39V [3]; first compound 0.01 µg/mL, partner 0.5 µg/mL
  fitness: 0.336
S. pneumoniae D39V [3]; first compound 0.02 µg/mL, partner 0.03125 µg/mL
  fitness: 0.935
S. pneumoniae D39V [3]; first compound 0.02 µg/mL, partner 0.0625 µg/mL
  fitness: 0.933
S. pneumoniae D39V [3]; first compound 0.02 µg/mL, partner 0.125 µg/mL
  fitness: 0.835
S. pneumoniae D39V [3]; first compound 0.02 µg/mL, partner 0.25 µg/mL
  fitness: 0.644
S. pneumoniae D39V [3]; first compound 0.02 µg/mL, partner 0.5 µg/mL
  fitness: 0.39
S. pneumoniae D39V [3]; first compound 0.04 µg/mL, partner 0.0625 µg/mL
  fitness: 0.728
S. pneumoniae D39V [3]; first compound 0.04 µg/mL, partner 0.125 µg/mL
  fitness: 0.614
S. pneumoniae D39V [3]; first compound 0.04 µg/mL, partner 0.25 µg/mL
  fitness: 0.468
S. pneumoniae D39V [3]; first compound 0.04 µg/mL, partner 0.5 µg/mL
  fitness: 0.157
B. subtilis 168
  Bliss interaction score: -0.0469
S. aureus DSM 20231 [4]
  Bliss interaction score: 0.0921
S. aureus Newman [5]
  Bliss interaction score: -0.0682
S. pneumoniae D39V [6]
  Bliss interaction score: 0.0979

## C[n+]1ccc(-c2cc[n+](C)cc2)cc1 [Paraquat] + CN[C@H](CC(C)C)C(=O)N[C@H]1C(=O)N[C@@H](CC(N)=O)C(=O)N[C@H]2C(=O)N[C@H]3C(=O)N[C@H](C(=O)N[C@H](C(=O)O)c4cc(O)cc(O)c4-c4cc3ccc4O)[C@H](O)c3ccc(c(Cl)c3)Oc3cc2cc(c3O[C@@H]2O[C@H](CO)[C@@H](O)[C@H](O)[C@H]2O[C@H]2C[C@](C)(N)[C@H](O)[C@H](C)O2)Oc2ccc(cc2Cl)[C@H]1O [Vancomycin]
S. aureus DSM 20231 [1]; [16]
  fitness: 0.908
S. aureus DSM 20231 [1]; [17]
  fitness: 0.956
S. aureus DSM 20231 [1]; first compound 1.25 µg/mL, partner 0.75 µg/mL
  fitness: 0.963
S. aureus DSM 20231 [1]; [18]
  fitness: 0.87
S. aureus DSM 20231 [1]; [19]
  fitness: 0.986
S. aureus DSM 20231 [1]; first compound 2.5 µg/mL, partner 0.75 µg/mL
  fitness: 0.969
S. aureus DSM 20231 [1]; [20]
  fitness: 0.861
S. aureus DSM 20231 [1]; [21]
  fitness: ≥ 1
S. aureus DSM 20231 [1]; [22]
  fitness: 0.964
S. aureus Newman [2]; [16]
  fitness: 0.933
S. aureus Newman [2]; [17]
  fitness: 0.898
S. aureus Newman [2]; [18]
  fitness: 0.911
S. aureus Newman [2]; [19]
  fitness: 0.898
S. aureus Newman [2]; [20]
  fitness: 0.933
S. aureus Newman [2]; [21]
  fitness: 0.917
S. aureus Newman [2]; [22]
  fitness: 0.935
S. pneumoniae D39V [3]; [23]
  fitness: 0.998
S. pneumoniae D39V [3]; [24]
  fitness: 0.984
S. pneumoniae D39V [3]; [25]
  fitness: 0.855
S. pneumoniae D39V [3]; [26]
  fitness: 0.18
S. pneumoniae D39V [3]; [27]
  fitness: 0.0697
S. pneumoniae D39V [3]; [28]
  fitness: 1
S. pneumoniae D39V [3]; [29]
  fitness: 0.994
S. pneumoniae D39V [3]; [30]
  fitness: 0.851
S. pneumoniae D39V [3]; [31]
  fitness: 0.249
S. pneumoniae D39V [3]; [32]
  fitness: 0.0334
S. pneumoniae D39V [3]; [33]
  fitness: ≥ 1
S. pneumoniae D39V [3]; [34]
  fitness: 0.974
S. pneumoniae D39V [3]; [35]
  fitness: 0.891
S. pneumoniae D39V [3]; [36]
  fitness: 0.372
S. pneumoniae D39V [3]; [37]
  fitness: 0.129
B. subtilis 168
  Bliss interaction score: 0.0779
S. aureus DSM 20231 [4]
  Bliss interaction score: 0.0505
S. aureus Newman [5]
  Bliss interaction score: 0.0613
S. pneumoniae D39V [6]
  Bliss interaction score: 0.101

## C[n+]1ccc(-c2cc[n+](C)cc2)cc1 [Paraquat] + Cn1nnc(-c2ccc(-c3ccc(N4C[C@H](CO)OC4=O)cc3F)cn2)n1 [Tedizolid]
S. aureus DSM 20231 [1]; [38]
  fitness: 0.866
S. aureus DSM 20231 [1]; [39]
  fitness: 0.644
S. aureus DSM 20231 [1]; first compound 1.25 µg/mL, partner 0.25 µg/mL
  fitness: 0.117
S. aureus DSM 20231 [1]; [40]
  fitness: 0.803
S. aureus DSM 20231 [1]; [41]
  fitness: 0.583
S. aureus DSM 20231 [1]; first compound 2.5 µg/mL, partner 0.25 µg/mL
  fitness: 0.161
S. aureus DSM 20231 [1]; [42]
  fitness: 0.836
S. aureus DSM 20231 [1]; first compound 5 µg/mL, partner 0.125 µg/mL
  fitness: 0.588
S. aureus DSM 20231 [1]; first compound 5 µg/mL, partner 0.25 µg/mL
  fitness: 0.137
S. aureus Newman [2]; [38]
  fitness: 0.855
S. aureus Newman [2]; [39]
  fitness: 0.762
S. aureus Newman [2]; [40]
  fitness: 0.902
S. aureus Newman [2]; [41]
  fitness: 0.805
S. aureus Newman [2]; [42]
  fitness: 0.843
S. pneumoniae D39V [3]; [23]
  fitness: 0.926
S. pneumoniae D39V [3]; [24]
  fitness: 0.948
S. pneumoniae D39V [3]; [25]
  fitness: 0.86
S. pneumoniae D39V [3]; [26]
  fitness: 0.796
S. pneumoniae D39V [3]; [27]
  fitness: 0.626
S. pneumoniae D39V [3]; [28]
  fitness: 0.956
S. pneumoniae D39V [3]; [29]
  fitness: 0.951
S. pneumoniae D39V [3]; [30]
  fitness: 0.846
S. pneumoniae D39V [3]; [31]
  fitness: 0.786
S. pneumoniae D39V [3]; [32]
  fitness: 0.603
S. pneumoniae D39V [3]; [33]
  fitness: 0.932
S. pneumoniae D39V [3]; [34]
  fitness: 0.934
S. pneumoniae D39V [3]; [35]
  fitness: 0.817
S. pneumoniae D39V [3]; [36]
  fitness: 0.808
S. pneumoniae D39V [3]; [37]
  fitness: 0.602
B. subtilis 168
  Bliss interaction score: 0.075
S. aureus DSM 20231 [4]
  Bliss interaction score: 0.0784
S. aureus Newman [5]
  Bliss interaction score: -0.041
S. pneumoniae D39V [6]
  Bliss interaction score: -0.0684
